Experimental data published in patent US11732256B2, “Multivalent glycopeptides that tightly bind to target proteins” (Brandeis University, priority 2013, dated 2023).
*1 amine or outer side, *2 acyl side, *3 side chain or, on linkers, in order; H or OH if unused. Where a SMILES comes first, the peptide text is derived from it. [ ]: non-standard residue; d: D form. The star is where a group is joined. X1 = O=C([C@H](CCc1cn(C2CCC(OC3O[C@H](CO[C@H]4O[C@H](CO[C@H]5O[C@H](CO)[C@@H](O)[C@H](O)[C@@H]5O[C@H]5O[C@H](CO)[C@@H](O)[C@H](O)[C@@H]5O)[C@@H](O)[C@H](O[C@H]5O[C@H](CO)[C@@H](O)[C@H](O)[C@@H]5O[C@H]5O[C@H](CO)[C@@H](O)[C@H](O)[C@@H]5O)[C@@H]4O)[C@@H](O)[C@H](O[C@H]4O[C@H](CO)[C@@H](O)[C@H](O)[C@@H]4O[C@H]4O[C@H](CO)[C@@H](O)[C@H](O)[C@@H]4O[C@H]4O[C@H](CO)[C@@H](O)[C@H](O)[C@@H]4O)[C@@H]3O)CC2)nn1)N[*:1])[*:2]; For = O=C*

Tested on: HIV broadly neutralizing antibody 2G12
Assay: Radioactive 2G12-glycopeptide binding assay with protein G magnetic beads (binding curve and KD determination)
Settings: for 2G12 binding after truncation: truncated clones
Method: The sequences were obtained by cloning non-selected library DNA. […] FIG. 9B is an SDS-PAGE analysis of the click reaction of the non-selected peptides. Both peptides were transcribed and translated from PCR-amplified DNA in Pure System that contains 0.02 mg/mL T7 RNA polymerase and additional 1 mM each NTP. The peptides were labeled with 3H-histidine and the bands were visualized by fluorography.
For round 10 winners, 0.12-0.2 nM radioactive glycopeptides were incubated with 0, 0.25, 0.5, 1, 2, 4, 8, 16, 32 or 64 nM 2G12 in 40 μL of selection buffer at room temperature for 1 h. Then, the solution was added to 0.12 mg of pre-equilibrated Dynabeads Protein G and tumbled at room temperature for 30 min. The supernatant was removed and the beads were washed with 3×40 μL of selection buffer. The radioactivities of the supernatant and wash solutions were measured by liquid scintillation counting as unbound fractions. […] The beads were resuspended in 40 μL of selection buffer, heated at 70° C. for 30 min to elute the bound glycopeptides, chilled on ice for 5 min, and tumbled at room temperature for 10 min. The supernatant was removed, and the beads were washed with 40 μL of selection buffer and resuspended in 40 μL of selection buffer. The radioactivities of these solutions and suspensions were measured by liquid scintillation counting separately and the values were combined as apparent bound fractions. […] All experiments were done at least in triplicate. KDs were calculated as described in the footnote of Table 4 (below).

[1] = Table 6 mutants/truncations, radioactive binding assay

Compound: CC[C@H](C)[C@H](NC(=O)[C@H](CCCNC(=N)N)NC(=O)[C@H](CCCNC(=N)N)NC(=O)CNC(=O)[C@H](CC(=O)O)NC(=O)[C@H](CC(N)=O)NC(=O)[C@H](CC(C)C)NC(=O)[C@@H](NC(=O)[C@H](CCc1cn(C2CCC(OC3O[C@H](CO[C@H]4O[C@H](CO[C@H]5O[C@H](CO)[C@@H](O)[C@H](O)[C@@H]5O[C@H]5O[C@H](CO)[C@@H](O)[C@H](O)[C@@H]5O)[C@@H](O)[C@H](O[C@H]5O[C@H](CO)[C@@H](O)[C@H](O)[C@@H]5O[C@H]5O[C@H](CO)[C@@H](O)[C@H](O)[C@@H]5O)[C@@H]4O)[C@@H](O)[C@H](O[C@H]4O[C@H](CO)[C@@H](O)[C@H](O)[C@@H]4O[C@H]4O[C@H](CO)[C@@H](O)[C@H](O)[C@@H]4O[C@H]4O[C@H](CO)[C@@H](O)[C@H](O)[C@@H]4O)[C@@H]3O)CC2)nn1)NC=O)C(C)C)C(=O)N[C@H](C(=O)N[C@@H](CCC(N)=O)C(=O)N[C@@H](CCc1cn(C2CCC(OC3O[C@H](CO[C@H]4O[C@H](CO[C@H]5O[C@H](CO)[C@@H](O)[C@H](O)[C@@H]5O[C@H]5O[C@H](CO)[C@@H](O)[C@H](O)[C@@H]5O)[C@@H](O)[C@H](O[C@H]5O[C@H](CO)[C@@H](O)[C@H](O)[C@@H]5O[C@H]5O[C@H](CO)[C@@H](O)[C@H](O)[C@@H]5O)[C@@H]4O)[C@@H](O)[C@H](O[C@H]4O[C@H](CO)[C@@H](O)[C@H](O)[C@@H]4O[C@H]4O[C@H](CO)[C@@H](O)[C@H](O)[C@@H]4O[C@H]4O[C@H](CO)[C@@H](O)[C@H](O)[C@@H]4O)[C@@H]3O)CC2)nn1)C(=O)N[C@@H](CO)C(=O)N[C@@H](CS)C(=O)N[C@@H](CCC(=O)O)C(=O)N[C@@H](CC(C)C)C(=O)N1CCC[C@H]1C(=O)N[C@@H](CCc1cn(C2CCC(OC3O[C@H](CO[C@H]4O[C@H](CO[C@H]5O[C@H](CO)[C@@H](O)[C@H](O)[C@@H]5O[C@H]5O[C@H](CO)[C@@H](O)[C@H](O)[C@@H]5O)[C@@H](O)[C@H](O[C@H]5O[C@H](CO)[C@@H](O)[C@H](O)[C@@H]5O[C@H]5O[C@H](CO)[C@@H](O)[C@H](O)[C@@H]5O)[C@@H]4O)[C@@H](O)[C@H](O[C@H]4O[C@H](CO)[C@@H](O)[C@H](O)[C@@H]4O[C@H]4O[C@H](CO)[C@@H](O)[C@H](O)[C@@H]4O[C@H]4O[C@H](CO)[C@@H](O)[C@H](O)[C@@H]4O)[C@@H]3O)CC2)nn1)C(=O)N[C@H](C(=O)N[C@@H](CCCNC(=N)N)C(=O)N[C@@H](CCCNC(=N)N)C(=O)N[C@@H](CO)C(=O)NCC(=O)N[C@@H](CO)C(=O)NCC(=O)N[C@@H](CO)C(=O)N[C@@H](CC(C)C)C(=O)NCC(=O)N[C@@H](Cc1c[nH]cn1)C(=O)N[C@@H](Cc1c[nH]cn1)C(=O)N[C@@H](Cc1c[nH]cn1)C(=O)N[C@@H](Cc1c[nH]cn1)C(=O)N[C@@H](Cc1c[nH]cn1)C(=O)N[C@@H](Cc1c[nH]cn1)C(=O)N[C@@H](CCCNC(=N)N)C(=O)N[C@@H](CC(=O)O)C(=O)N[C@@H](Cc1ccc(O)cc1)C(=O)N[C@@H](CCCCN)C(=O)N[C@@H](CC(=O)O)C(=O)N[C@@H](CC(=O)O)C(=O)N[C@@H](CC(=O)O)C(=O)N[C@@H](CC(=O)O)C(=O)N[C@@H](CCCCN)C(=O)O)C(C)C)C(C)C (stereo partly drawn) [Clone 10F5-Δ11, XVLNDGRRIVQXSCELPXVRRS]
- Fmax [%] [1]: 17%
- Kd [1]: > 200 nM

Compound: XYKNIPSTTXNLYSKPXATVTTLKCKLNGNRIS [Clone 12G]
- Kd (Table 4, radiolabeled ribosomally translated glycopeptide, varied 2G12, room temperature, ± standard error of curve fit): > 128 nM

Compound: XDTLHLKQIGGXPNSITQQDVRXTSIPYTYTWP [Clone 10F3-C15S]
- Fmax [%] [1]: 63%
- Kd [1]: 2.91 nM

Compound: CC[C@H](C)[C@H](NC(=O)[C@H](CCCNC(=N)N)NC(=O)[C@H](Cc1c[nH]cn1)NC(=O)[C@H](Cc1ccccc1)NC(=O)[C@H](CC(C)C)NC(=O)[C@H](C)NC(=O)[C@H](CC(C)C)NC(=O)[C@H](C)NC(=O)[C@H](Cc1ccc(O)cc1)NC(=O)[C@H](CCc1cn(C2CCC(OC3O[C@H](CO[C@H]4O[C@H](CO[C@H]5O[C@H](CO)[C@@H](O)[C@H](O)[C@@H]5O[C@H]5O[C@H](CO)[C@@H](O)[C@H](O)[C@@H]5O)[C@@H](O)[C@H](O[C@H]5O[C@H](CO)[C@@H](O)[C@H](O)[C@@H]5O[C@H]5O[C@H](CO)[C@@H](O)[C@H](O)[C@@H]5O)[C@@H]4O)[C@@H](O)[C@H](O[C@H]4O[C@H](CO)[C@@H](O)[C@H](O)[C@@H]4O[C@H]4O[C@H](CO)[C@@H](O)[C@H](O)[C@@H]4O[C@H]4O[C@H](CO)[C@@H](O)[C@H](O)[C@@H]4O)[C@@H]3O)CC2)nn1)NC(=O)[C@H](CC(=O)O)NC(=O)[C@@H](NC(=O)[C@@H](NC(=O)[C@H](CCC(N)=O)NC(=O)[C@H](CCc1cn(C2CCC(OC3O[C@H](CO[C@H]4O[C@H](CO[C@H]5O[C@H](CO)[C@@H](O)[C@H](O)[C@@H]5O[C@H]5O[C@H](CO)[C@@H](O)[C@H](O)[C@@H]5O)[C@@H](O)[C@H](O[C@H]5O[C@H](CO)[C@@H](O)[C@H](O)[C@@H]5O[C@H]5O[C@H](CO)[C@@H](O)[C@H](O)[C@@H]5O)[C@@H]4O)[C@@H](O)[C@H](O[C@H]4O[C@H](CO)[C@@H](O)[C@H](O)[C@@H]4O[C@H]4O[C@H](CO)[C@@H](O)[C@H](O)[C@@H]4O[C@H]4O[C@H](CO)[C@@H](O)[C@H](O)[C@@H]4O)[C@@H]3O)CC2)nn1)NC(=O)[C@H](CCCCN)NC(=O)[C@H](CC(C)C)NC(=O)[C@H](C)NC(=O)[C@H](C)NC(=O)[C@H](CCc1cn(C2CCC(OC3O[C@H](CO[C@H]4O[C@H](CO[C@H]5O[C@H](CO)[C@@H](O)[C@H](O)[C@@H]5O[C@H]5O[C@H](CO)[C@@H](O)[C@H](O)[C@@H]5O)[C@@H](O)[C@H](O[C@H]5O[C@H](CO)[C@@H](O)[C@H](O)[C@@H]5O[C@H]5O[C@H](CO)[C@@H](O)[C@H](O)[C@@H]5O)[C@@H]4O)[C@@H](O)[C@H](O[C@H]4O[C@H](CO)[C@@H](O)[C@H](O)[C@@H]4O[C@H]4O[C@H](CO)[C@@H](O)[C@H](O)[C@@H]4O[C@H]4O[C@H](CO)[C@@H](O)[C@H](O)[C@@H]4O)[C@@H]3O)CC2)nn1)NC(=O)[C@H](CCc1cn(C2CCC(OC3O[C@H](CO[C@H]4O[C@H](CO[C@H]5O[C@H](CO)[C@@H](O)[C@H](O)[C@@H]5O[C@H]5O[C@H](CO)[C@@H](O)[C@H](O)[C@@H]5O)[C@@H](O)[C@H](O[C@H]5O[C@H](CO)[C@@H](O)[C@H](O)[C@@H]5O[C@H]5O[C@H](CO)[C@@H](O)[C@H](O)[C@@H]5O)[C@@H]4O)[C@@H](O)[C@H](O[C@H]4O[C@H](CO)[C@@H](O)[C@H](O)[C@@H]4O[C@H]4O[C@H](CO)[C@@H](O)[C@H](O)[C@@H]4O[C@H]4O[C@H](CO)[C@@H](O)[C@H](O)[C@@H]4O)[C@@H]3O)CC2)nn1)NC=O)C(C)C)[C@@H](C)O)C(=O)N[C@@H](CC(C)C)C(=O)NCC(=O)N[C@@H](CO)C(=O)NCC(=O)N[C@@H](CO)C(=O)N[C@@H](CC(C)C)C(=O)NCC(=O)N[C@@H](Cc1c[nH]cn1)C(=O)N[C@@H](Cc1c[nH]cn1)C(=O)N[C@@H](Cc1c[nH]cn1)C(=O)N[C@@H](Cc1c[nH]cn1)C(=O)N[C@@H](Cc1c[nH]cn1)C(=O)N[C@@H](Cc1c[nH]cn1)C(=O)N[C@@H](CCCNC(=N)N)C(=O)N[C@@H](CC(=O)O)C(=O)N[C@@H](Cc1ccc(O)cc1)C(=O)N[C@@H](CCCCN)C(=O)N[C@@H](CC(=O)O)C(=O)N[C@@H](CC(=O)O)C(=O)N[C@@H](CC(=O)O)C(=O)N[C@@H](CC(=O)O)C(=O)N[C@@H](CCCCN)C(=O)O (stereo partly drawn) [Clone 10F2-Δ11, XXAALKXQVTDXYALALFHRIL]
- Fmax [%] [1]: 70%
- 2G12 binding after truncation: tight binding

Compound: CC[C@H](C)[C@H](NC(=O)[C@H](CO)NC(=O)[C@H](CCCNC(=N)N)NC(=O)[C@H](CCc1cn(C2CCC(OC3O[C@H](CO[C@H]4O[C@H](CO[C@H]5O[C@H](CO)[C@@H](O)[C@H](O)[C@@H]5O[C@H]5O[C@H](CO)[C@@H](O)[C@H](O)[C@@H]5O)[C@@H](O)[C@H](O[C@H]5O[C@H](CO)[C@@H](O)[C@H](O)[C@@H]5O[C@H]5O[C@H](CO)[C@@H](O)[C@H](O)[C@@H]5O)[C@@H]4O)[C@@H](O)[C@H](O[C@H]4O[C@H](CO)[C@@H](O)[C@H](O)[C@@H]4O[C@H]4O[C@H](CO)[C@@H](O)[C@H](O)[C@@H]4O[C@H]4O[C@H](CO)[C@@H](O)[C@H](O)[C@@H]4O)[C@@H]3O)CC2)nn1)NC=O)C(=O)N1CCC[C@H]1C(=O)N[C@@H](Cc1c[nH]c2ccccc12)C(=O)N[C@@H](Cc1ccc(O)cc1)C(=O)N[C@H](C(=O)N[C@@H](Cc1ccc(O)cc1)C(=O)N[C@@H](CCCNC(=N)N)C(=O)N[C@@H](Cc1c[nH]c2ccccc12)C(=O)N[C@@H](CC(C)C)C(=O)N1CCC[C@H]1C(=O)N[C@@H](CC(N)=O)C(=O)NCC(=O)N[C@@H](CO)C(=O)NCC(=O)N[C@@H](CO)C(=O)N[C@@H](CC(C)C)C(=O)NCC(=O)N[C@@H](Cc1c[nH]cn1)C(=O)N[C@@H](Cc1c[nH]cn1)C(=O)N[C@@H](Cc1c[nH]cn1)C(=O)N[C@@H](Cc1c[nH]cn1)C(=O)N[C@@H](Cc1c[nH]cn1)C(=O)N[C@@H](Cc1c[nH]cn1)C(=O)N[C@@H](CCCNC(=N)N)C(=O)N[C@@H](CC(=O)O)C(=O)N[C@@H](Cc1ccc(O)cc1)C(=O)N[C@@H](CCCCN)C(=O)N[C@@H](CC(=O)O)C(=O)N[C@@H](CC(=O)O)C(=O)N[C@@H](CC(=O)O)C(=O)N[C@@H](CC(=O)O)C(=O)N[C@@H](CCCCN)C(=O)O)[C@@H](C)O (stereo partly drawn) [Clone 10V1-Δ19, XRSIPWYTYRWLPN] (For-[X1]RSIPWYTYRWLPNGSGSLGHHHHHHRDYKDDDDK-OH; C-terminus assumed)
- Fmax [%] [1]: 20%
- 2G12 binding after truncation: tight binding
